Holding throughout (assay type): biochemical
One assay has as its target T1, NAALAD-ase II (Homo sapiens, UniProt Q9Y3Q0).
T1 construct: expressed in transfected cells; host or cells: COS cells, transient, pcDNA-3
In words: [3H]-NAAG hydrolysis assay, membranes of COS cells transiently transfected with NAALAD-ase II. The procedure: (§1) FIG. 9: is an illustration of time course of NAALAD-ase activity. Activity of membrane preparations from COS cells transiently transfected with either NAALAD-ase I (A) or […]. Hydrolysis of 500 nM 3[H]-NAAG in 1 mM ZnCl2, 50 mM Tris.HCL (pH 7.4) was assayed for 0, 15, 30 and 60 min at 37° C. in the presence (open circles) or absence (closed circles) of 30 μM quisqualate. Reactions were terminated with 250 mM ice cold sodium phosphate and released 3[H]-glutamate measured. (C) Inhibition of NAALAD-ase I (open circles) and NAALAD-ase II (closed circles) activity by increasing concentrations of quisqualic acid expressed as % of control (activity in the absence of any inhibitor).
(§2) COS cells were maintained in complete medium (DMEM supplemented with 10% foetal calf serum, 1× non-essential amino acids and a 1× strptamycin/penicillin/glutamine mix). Prior to transfection cells were washed twice with PBS, Ca^+2/Mg^2+ free pre-warmed to 37° C. and dissociated from culture plates by addition of a trypsin/EDTA solution for 1–2 minutes. Cells were collected after a 10 min spin at 1600 rpm and re-suspended in 1–2 ml of equilibrated (5% CO2/95% air) pre-warmed medium. The cell titre was determined in a Coulter counter and cells were seeded in 6 well plates at a density of 15000 cells/cm^2 and allowed to reach approximately 80% confluence (˜2 days growth). For each transfection 6 μl FuGENE6 (Boehringer Mannheim, Germany) was added to 96 μl serum free medium and incubated for 5 minutes at 20° C. This preparation was added to a second tube containing 1 μg of NAALAD-ase/pcDNA3 DNA, mixed gently and allowed to stand for 15 minutes at room temperature. The DNA/FuGENE6/serum-free medium mix was pipetted into a well containing 2 ml fresh complete medium. […]
(§3) NAALAD-ase activity was quantified by determination of the extent of hydrolysis of N-acetyl-L-aspartyl-L-(3,4-[^3H])-glutamate as previously described (Blakeley et al., 1988). […] Assay eluates were diluated with scintillation cocktail (16 ml Ultima Gold XR) and counted in a scintillation counter (Packard). […]

The target in another assay is T2, NAALAD-ase L (Homo sapiens, UniProt Q9UQQ1).
T2 construct: To construct a full length NAALAD-ase L clone, two new primer sets were designed; expressed in transfected cells; host or cells: COS cells, transient, pcDNA-3
T2 sequence (Q9UQQ1 1-740 S100X/R686S/T687H/S689L/V690R/V691S/T692H/F693I): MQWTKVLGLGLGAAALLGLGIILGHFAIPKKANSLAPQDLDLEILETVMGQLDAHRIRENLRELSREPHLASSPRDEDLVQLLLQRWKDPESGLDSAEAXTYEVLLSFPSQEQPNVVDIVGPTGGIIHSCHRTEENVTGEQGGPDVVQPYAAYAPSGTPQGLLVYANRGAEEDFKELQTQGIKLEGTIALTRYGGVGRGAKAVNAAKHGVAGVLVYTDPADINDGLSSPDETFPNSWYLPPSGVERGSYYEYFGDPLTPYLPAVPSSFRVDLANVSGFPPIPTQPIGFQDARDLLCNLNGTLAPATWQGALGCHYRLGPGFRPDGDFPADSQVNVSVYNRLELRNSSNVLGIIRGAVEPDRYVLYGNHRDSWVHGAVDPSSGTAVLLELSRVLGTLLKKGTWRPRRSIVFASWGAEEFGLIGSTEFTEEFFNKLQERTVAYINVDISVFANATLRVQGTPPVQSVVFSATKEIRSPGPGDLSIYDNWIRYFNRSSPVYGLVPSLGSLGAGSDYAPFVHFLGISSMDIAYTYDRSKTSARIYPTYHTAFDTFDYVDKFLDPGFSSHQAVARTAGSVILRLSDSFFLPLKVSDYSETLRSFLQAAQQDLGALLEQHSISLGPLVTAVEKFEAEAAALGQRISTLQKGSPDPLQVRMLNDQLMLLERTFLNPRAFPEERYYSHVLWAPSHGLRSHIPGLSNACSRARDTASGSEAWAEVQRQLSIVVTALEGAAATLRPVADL
In words: [3H]-NAAG hydrolysis assay, COS cells transfected with NAALAD-ase L. To be noted: recombinant preparation from COS cells. The procedure: as §1
COS cells were maintained in complete medium (DMEM supplemented with 10% foetal calf serum, 1× non-essential amino acids and a 1× strptamycin/penicillin/glutamine mix). […] The cell titre was determined in a Coulter counter and cells were seeded in 6 well plates at a density of 15000 cells/cm^2 and allowed to reach approximately 80% confluence (˜2 days growth). […]
as §3

For assay [1], the target named is T3, LNCaP membrane NAALAD-ase (Homo sapiens, UniProt Q04609).
T3 construct: 10 μg of protein from LNCaP cell membrane preparations was used per reaction; endogenous in cells; host or cells: LNCaP cell membranes
The assay can be described thus: Scintillation proximity assay (SPA) of [3H]-NAAG hydrolysis, LNCaP cell membrane preparations. The procedure:
(§4) FIG. 10: is an illustration of NAALAD-ase activity determinations using SPA beads. (A) 10 μg of protein from LNCaP cell membrane preparations was used per reaction to develop a high throughput assay NAALAD-ase assay. Hydrolysis of 40 nM 3[H]-NAAG in 1 mM ZnCl2, 50 mM Tris-HCL (pH 7.4) was measured at 25° C. for different incubation times in a 100 μl reaction volume. Reactions were terminated by the addition of 100 μl glycine buffer (pH 3.0) and naked YS-SPA beads. (C) Inhibition of NAALAD-ase I (open circles) or LNCaP membrane NAALAD-ase (closed circles) activity by increasing concentrations of quisqualic acid expressed as a % of control (activity in the absence of any inhibitor).
(§5) NAALAD-ase assays were performed at 37° C. or 25° C. for 10 min in the presence of 50 mM Tris-HCl, pH 7.4, containing 1 mM ZnCl2. Each assay was performed in a 100 μl reaction volume containing 40 nM 3[H]-NAAG, 50 mM Tris-HCl (pH 7.4), 1 mM Zn^2+C2 and either 10 μg of recombinant NAALAD-ase I or LNCaP cell membrane preparations. Reactions were terminated by addition of 100 μl glycine buffer (pH 3.0) and 1 mg naked YS-SPA beads. After allowing the beds to settle for 30 min, the assay mixture was counted in a microtiterplate scintillation counter. […]

For assay [2], the target named is T4, NAALAD-ase I (Homo sapiens, UniProt Q04609, Y75H). In words: Scintillation proximity assay (SPA) of [3H]-NAAG hydrolysis, recombinant NAALAD-ase I membrane preparations. On the set-up: expressed in transfected cells. Here is the method:
as §4, §5

For assay [3], the target named is T4, NAALAD-ase I. In words: [3H]-NAAG hydrolysis assay, membranes of COS cells transiently transfected with NAALAD-ase I. On the set-up: expressed in transfected cells; host or cells: COS cells, transient, pcDNA-3 (CMV promoter). The procedure:
as §1, §2, §3

T4 sequence (Q04609 whole entry Y75H): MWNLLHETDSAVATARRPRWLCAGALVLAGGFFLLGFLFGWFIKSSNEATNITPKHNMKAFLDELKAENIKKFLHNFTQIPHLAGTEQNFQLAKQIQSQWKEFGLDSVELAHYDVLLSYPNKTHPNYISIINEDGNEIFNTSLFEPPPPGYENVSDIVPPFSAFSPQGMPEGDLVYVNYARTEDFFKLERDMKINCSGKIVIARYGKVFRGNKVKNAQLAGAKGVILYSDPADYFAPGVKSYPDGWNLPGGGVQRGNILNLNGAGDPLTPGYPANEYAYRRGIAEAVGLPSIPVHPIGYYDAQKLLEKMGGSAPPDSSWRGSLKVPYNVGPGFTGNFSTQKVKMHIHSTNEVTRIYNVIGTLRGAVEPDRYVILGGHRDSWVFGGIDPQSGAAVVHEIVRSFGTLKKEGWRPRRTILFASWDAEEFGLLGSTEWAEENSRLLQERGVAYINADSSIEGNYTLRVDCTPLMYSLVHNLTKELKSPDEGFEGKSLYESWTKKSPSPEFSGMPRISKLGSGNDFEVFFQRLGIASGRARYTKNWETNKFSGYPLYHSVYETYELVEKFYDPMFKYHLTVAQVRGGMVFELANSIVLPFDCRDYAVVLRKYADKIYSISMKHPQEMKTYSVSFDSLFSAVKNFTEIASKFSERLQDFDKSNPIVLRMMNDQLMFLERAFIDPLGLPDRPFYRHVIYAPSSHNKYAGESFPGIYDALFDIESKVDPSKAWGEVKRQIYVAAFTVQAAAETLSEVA
T1 sequence (Q9Y3Q0 whole entry): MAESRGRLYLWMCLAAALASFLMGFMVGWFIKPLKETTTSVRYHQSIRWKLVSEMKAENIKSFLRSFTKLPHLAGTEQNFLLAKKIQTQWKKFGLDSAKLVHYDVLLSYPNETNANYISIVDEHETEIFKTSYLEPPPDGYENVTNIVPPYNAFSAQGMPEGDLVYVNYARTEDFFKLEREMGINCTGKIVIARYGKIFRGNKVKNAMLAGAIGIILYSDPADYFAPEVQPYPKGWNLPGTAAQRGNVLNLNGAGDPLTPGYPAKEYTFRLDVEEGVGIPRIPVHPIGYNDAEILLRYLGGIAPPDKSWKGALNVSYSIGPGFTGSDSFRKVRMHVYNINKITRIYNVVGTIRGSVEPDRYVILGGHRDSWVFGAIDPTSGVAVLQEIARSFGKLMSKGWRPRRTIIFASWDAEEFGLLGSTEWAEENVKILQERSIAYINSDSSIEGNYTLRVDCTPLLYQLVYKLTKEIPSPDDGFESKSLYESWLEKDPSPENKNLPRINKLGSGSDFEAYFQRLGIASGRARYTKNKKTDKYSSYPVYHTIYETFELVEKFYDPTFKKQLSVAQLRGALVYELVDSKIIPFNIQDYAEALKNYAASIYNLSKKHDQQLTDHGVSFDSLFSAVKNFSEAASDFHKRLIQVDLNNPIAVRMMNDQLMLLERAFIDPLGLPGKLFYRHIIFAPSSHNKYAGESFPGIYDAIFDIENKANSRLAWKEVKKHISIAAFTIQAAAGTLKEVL
T3 sequence (Q04609 whole entry): as the sequence (Q04609 whole entry Y75H) above, with H75Y counted along it

Regarding `N[C@@H](Cn1oc(=O)[nH]c1=O)C(=O)O` [quisqualic acid], the inhibition at 30 µM is above 50% against NAALAD-ase II (30 μM, after 60 min (FIG. 9B)) and above 50% at NAALAD-ase I [3] (30 μM, after 60 min (FIG. 9A)). Also, the concentration for half-maximal inhibition (IC50) was 17 µM against NAALAD-ase II (IC50, inhibition of NAALAD-ase II activity, 500 nM [3H]-NAAG, 37° C., 60 min, anion exchange column readout (FIG. 9C)); around 10 µM on NAALAD-ase II (IC50 for NAALAD-ase II (discussion, rounded), recombinant preparation from COS cells, NAAG hydrolysis); 0.91 µM in assay [1]; 1 µM at NAALAD-ase I [2]; 12 µM against NAALAD-ase I [3] (IC50, inhibition of NAALAD-ase I activity, 500 nM [3H]-NAAG, 37° C., 30 min, anion exchange column readout (FIG. 9C)); around 10 µM at NAALAD-ase I [3] (IC50 for NAALAD-ase I (discussion, rounded), recombinant preparation from COS cells, NAAG hydrolysis). Besides, on NAALAD-ase L, the “inhibition of NAALAD-ase L activity against NAAG” value is given as “inhibited”.

For the origin of these results see patent US7217555B1, “Cloning and characterisation of novel mammalian peptidase” (Janssen Pharmaceutica N.V., priority 1998, dated 2007).
